Our source for the IC50 values is patent US9493444B2 (Merck Patent GmbH, priority 2012, dated 2016).

In the experiment the test system is Wnt pathway (TCF-dependent transcription in HEK293 luciferase reporter cell line with ER-DSH construct). The experiment can be described thus: Cellular assay for Wnt pathway activity (luciferase reporter). Type of experiment: cell-based. The following applies: Homo sapiens; Wnt pathway inhibition, HEK293 luciferase reporter cells (ER-DSH, TCF promoter), 24 hours incubation, estrogen-induced. In short, it runs like this:
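Luminescent luciferase read-out after 24 h compound exposure at 1 nM to 30 μM, with TCF-driven transcription switched on by estrogen addition. IC50 values come from curve fits of data normalized against the vehicle-only control.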
With `CC(=O)N(C)CCN(C)c1cncc(Oc2noc3ccccc23)n1` [Compound 224, N-(2-{[6-(Benzo[d]isoxazol-3-yloxy)-pyrazin-2-yl]-methyl-amino}-ethyl)-N-methyl-acetamide], the IC50 was less than 200 nM.

Consider `CC(=O)Nc1ccc(-c2ccc(Oc3cncc(N(C)CCN(C)C(C)=O)n3)c(F)c2)cn1` [Compound 225, N-[2-({6-[4-(6-Acetylamino-pyridin-3-yl)-2-fluoro-phenoxy]-pyrazin-2-yl}-methyl-amino)-ethyl]-N-methyl-acetamide], for which the IC50 was less than 200 nM.

The compound `CC(=O)N(C)CCN(C)c1cncc(Oc2ccc(-c3ccc(F)cn3)cc2F)n1` [Compound 226, N-[2-({6-[2-Fluoro-4-(5-fluoro-pyridin-2-yl)-phenoxy]-pyrazin-2-yl}-methyl-amino)-ethyl]-N-methyl-acetamide] came in with an IC50 of less than 200 nM.

Turning to `COc1ccc(-c2ccc(Oc3cncc(N(C)CCN(C)C(C)=O)n3)c(F)c2)nc1` [Compound 227, N-[2-({6-[2-Fluoro-4-(5-methoxy-pyridin-2-yl)-phenoxy]-pyrazin-2-yl}-methyl-amino)-ethyl]-N-methyl-acetamide], the IC50 is less than 200 nM.

`CC(=O)N(C)CCN(C)c1cncc(Oc2ccc(-c3ccncc3C#N)cc2F)n1` [Compound 228, N-[2-({6-[4-(3-Cyano-pyridin-4-yl)-2-fluoro-phenoxy]-pyrazin-2-yl}-methyl-amino)-ethyl]-N-methyl-acetamide] yielded an IC50 of less than 200 nM.

For `CC(=O)N(C)CCN(C)c1cncc(Oc2ccc(-c3ccc(C)cn3)cc2F)n1` [Compound 229, N-[2-({6-[2-Fluoro-4-(5-methyl-pyridin-2-yl)-phenoxy]-pyrazin-2-yl}-methyl-amino)-ethyl]-N-methyl-acetamide], the IC50 is less than 200 nM.

`CC(=O)Nc1ccc(-c2ccc(Oc3cncc(N(C)CCN(C)C(C)=O)n3)c(F)c2)nc1` [Compound 230, N-{6-[4-(6-{[2-(Acetyl-methyl-amino)-ethyl]-methyl-amino}-pyrazin-2-yloxy)-3-fluoro-phenyl]-pyridin-3-yl}-acetamide] came in with an IC50 of less than 200 nM.

`CC(=O)N(C)CCN(C)c1cncc(Oc2ccc(C(=O)Nc3cccnc3)cc2)n1` [Compound 231, 4-(6-{[2-(Acetyl-methyl-amino)-ethyl]-methyl-amino}-pyrazin-2-yloxy)-N-pyridin-3-yl-benzamide] registered an IC50 of less than 200 nM.

Take `CC(=O)N(C)CCN(C)c1cncc(Oc2ccc(CCC#N)cc2)n1` [Compound 232, N-[2-({6-[4-(2-Cyano-ethyl)-phenoxy]-pyrazin-2-yl}-methyl-amino)-ethyl]-N-methyl-acetamide]: the IC50 was less than 200 nM.

With `CC(=O)N(C)CCNc1cncc(Oc2ccc(-c3ccc(N4CCOCC4)nc3)cc2)n1` [Compound 233, N-Methyl-N-(2-{6-[4-(6-morpholin-4-yl-pyridin-3-yl)-phenoxy]-pyrazin-2-ylamino}-ethyl)-acetamide], the IC50 fell in the range of 1000 to 10000 nM.

In turn, `CC(=O)N(C)CCNc1cncc(Oc2ccc(-c3cccc(N4CCN(C)CC4)n3)cc2)n1` [Compound 234, N-Methyl-N-[2-(6-{4-[6-(4-methyl-piperazin-1-yl)-pyridin-2-yl]-phenoxy}-pyrazin-2-ylamino)-ethyl]-acetamide] yielded a 50% inhibitory concentration (IC50) of less than 200 nM.

The compound `CC(=O)Nc1cccc(-c2ccc(Oc3cncc(NCCN(C)C(C)=O)n3)cc2)n1` [Compound 235, N-(2-{6-[4-(6-Acetylamino-pyridin-2-yl)-phenoxy]-pyrazin-2-ylamino}-ethyl)-N-methyl-acetamide] came in with an IC50 of 200 to 1000 nM.

In turn, `CC(=O)N(C)CCN(C)c1cncc(Oc2ccc(-c3c(F)c(F)nc(F)c3F)cc2)n1` [Compound 236, N-Methyl-N-[2-(methyl-{6-[4-(2,3,5,6-tetrafluoro-pyridin-4-yl)-phenoxy]-pyrazin-2-yl}-amino)-ethyl]-acetamide] came in with an IC50 of less than 200 nM.

As to `CC(=O)N(C)CCN(C)c1cncc(Oc2ccc(-c3cncc4[nH]ccc34)cc2)n1` [Compound 237, N-Methyl-N-[2-(methyl-{6-[4-(1H-pyrrolo[2,3-c]pyridin-4-yl)-phenoxy]-pyrazin-2-yl}-amino)-ethyl]-acetamide], the IC50 is 200 to 1000 nM.

With `CC(=O)N(C)CCN(C)c1cncc(Oc2ccc(-c3cnc(N)cn3)cc2F)n1` [Compound 238, N-[2-({6-[4-(5-Amino-pyrazin-2-yl)-2-fluoro-phenoxy]-pyrazin-2-yl}-methyl-amino)-ethyl]-N-methyl-acetamide], the IC50 was less than 200 nM.

For the compound `CC(=O)N(C)CCN(C)c1cncc(Oc2ccc(-c3ccc(N4CCOCC4)nc3)cc2F)n1` [Compound 239, N-[2-({6-[2-Fluoro-4-(6-morpholin-4-yl-pyridin-3-yl)-phenoxy]-pyrazin-2-yl}-methyl-amino)-ethyl]-N-methyl-acetamide], the IC50 was less than 200 nM.

`COc1ccc(-c2ccc(Oc3cncc(NCCN(C)C(C)=O)n3)cc2)nc1` [Compound 240, N-(2-{6-[4-(5-Methoxy-pyridin-2-yl)-phenoxy]-pyrazin-2-ylamino}-ethyl)-N-methyl-acetamide]: the IC50 lay within 200 to 1000 nM.

Turning to `CC(=O)N(C)CCNc1cncc(Oc2ccc(-c3cnc(N)cn3)cc2)n1` [Compound 241, N-(2-{6-[4-(5-Amino-pyrazin-2-yl)-phenoxy]-pyrazin-2-ylamino}-ethyl)-N-methyl-acetamide], the IC50 lay within 1000 to 10000 nM.

`CC(=O)N(C)CCNc1cncc(Oc2ccc(-c3ccncc3C#N)cc2)n1` [Compound 242, N-(2-{6-[4-(3-Cyano-pyridin-4-yl)-phenoxy]-pyrazin-2-ylamino}-ethyl)-N-methyl-acetamide] gave an IC50 of 1000 to 10000 nM.

`COc1cc(C(C)=O)ccc1Oc1cncc(N(C)CCN(C)C(C)=O)n1` [Compound 243, N-(2-{[6-(4-Acetyl-2-methoxy-phenoxy)-pyrazin-2-yl]-methyl-amino}-ethyl)-N-methyl-acetamide] had an IC50 of 1000 to 10000 nM.

As for `C#CCOC(=O)Nc1ccc(-c2ccc(Oc3cncc(N(C)CCN(C)C(C)=O)n3)cc2)nc1` [Compound 244, {6-[4-(6-{[2-(Acetyl-methyl-amino)-ethyl]-methyl-amino}-pyrazin-2-yloxy)-phenyl]-pyridin-3-yl}-carbamic acid prop-2-ynyl ester], the IC50 was less than 200 nM.

For `CC(=O)N(C)CCN(C)c1cncc(Oc2ccc(-c3ccc(N4CCNCC4)nc3)cc2)n1` [Compound 245, N-Methyl-N-[2-(methyl-{6-[4-(6-piperazin-1-yl-pyridin-3-yl)-phenoxy]-pyrazin-2-yl}-amino)-ethyl]-acetamide], the IC50 was less than 200 nM.

`CC(=O)N(C)CCN(C)c1cncc(Oc2ccc(C)nc2)n1` [Compound 246, N-Methyl-N-(2-{methyl-[6-(6-methyl-pyridin-3-yloxy)-pyrazin-2-yl]-amino}-ethyl)-acetamide]: the IC50 was 1000 to 10000 nM.

The compound `CNC(=O)CCN(C)c1cncc(Oc2ccc(-c3ccc(C)cn3)cc2)n1` [Compound 247, N-Methyl-3-(methyl-{6-[4-(5-methyl-pyridin-2-yl)-phenoxy]-pyrazin-2-yl}-amino)-propionamide] showed an IC50 of less than 200 nM.

For the compound `CC(=O)N(C)CCN(C)c1cncc(Oc2ccc(Br)c(F)c2F)n1` [Compound 248, N-(2-{[6-(4-Bromo-2,3-difluoro-phenoxy)-pyrazin-2-yl]-methyl-amino}-ethyl)-N-methyl-acetamide], the IC50 was in the range of 200 to 1000 nM.

As for `CC(=O)N(C)CCN(C)c1cncc(Oc2ccc(-c3ccc(Cl)cc3)c(F)c2F)n1` [Compound 249, N-(2-{[6-(4′-Chloro-2,3-difluoro-biphenyl-4-yloxy)-pyrazin-2-yl]-methyl-amino}-ethyl)-N-methyl-acetamide], the IC50 was 200 to 1000 nM.

In the case of `CC(=O)N(C)CCN(C)c1cncc(Oc2cnc3[nH]ccc3c2)n1` [Compound 250, N-Methyl-N-(2-{methyl-[6-(1H-pyrrolo[2,3-b]pyridin-5-yloxy)-pyrazin-2-yl]-amino}-ethyl)-acetamide], the IC50 was in the range of 1000 to 10000 nM.

Compound `CC(=O)N(C)CCN(C)c1cncc(Oc2ccc(-c3ccc(CCN)cc3)cc2)n1` [Compound 251, N-[2-({6-[4′-(2-Amino-ethyl)-biphenyl-4-yloxy]-pyrazin-2-yl}-methyl-amino)-ethyl]-N-methyl-acetamide] had an IC50 of less than 200 nM.

In the case of `CC(=O)N(C)CCN(C)c1cncc(Oc2ccc(-c3cc(Br)cnc3N)cc2)n1` [Compound 252, N-[2-({6-[4-(2-Amino-5-bromo-pyridin-3-yl)-phenoxy]-pyrazin-2-yl}-methyl-amino)-ethyl]-N-methyl-acetamide], the IC50 is 200 to 1000 nM.

`CC(=O)N(C)CCN(C)c1cncc(Oc2ccc(-c3cccc(N4CCN(C)CC4)n3)cc2F)n1` [Compound 253, N-{2-[(6-{2-Fluoro-4-[6-(4-methyl-piperazin-1-yl)-pyridin-2-yl]-phenoxy}-pyrazin-2-yl)-methyl-amino]-ethyl}-N-methyl-acetamide] showed an IC50 of less than 200 nM.

For `CC(=O)N(C)CCNc1cncc(Oc2ccc(-c3ccc(CO)nc3)cc2)n1` [Compound 254, N-(2-{6-[4-(6-Hydroxy-methyl-pyridin-3-yl)-phenoxy]-pyrazin-2-ylamino}-ethyl)-N-methyl-acetamide], the IC50 was in the range of 200 to 1000 nM.

For the compound `CC(=O)N(C)CCNc1cncc(Oc2ccc(-c3ccncc3)cc2)n1` [Compound 255, N-Methyl-N-{2-[6-(4-pyridin-4-yl-phenoxy)-pyrazin-2-ylamino]-ethyl}-acetamide], the IC50 lay within 1000 to 10000 nM.

Turning to `CC(=O)N(C)CCN(C)c1cncc(Oc2ccc(-c3ccn(C)n3)c(F)c2F)n1` [Compound 256, N-[2-({6-[2,3-Difluoro-4-(1-methyl-1H-pyrazol-3-yl)-phenoxy]-pyrazin-2-yl}-methyl-amino)-ethyl]-N-methyl-acetamide], the IC50 is 200 to 1000 nM.

`CC(=O)N(C)CCNc1cncc(Oc2ccc(-c3ccncc3C#N)cc2F)n1` [Compound 257, N-(2-{6-[4-(3-Cyano-pyridin-4-yl)-2-fluoro-phenoxy]-pyrazin-2-ylamino}-ethyl)-N-methyl-acetamide]: the concentration for half-maximal inhibition (IC50) is 200 to 1000 nM.
